Data on 6 compounds can be found in paper PMC12645998, “Optimization of VE607 to generate analogs with improved neutralization activities against SARS-CoV-2 variants” (Journal of Virology, 2025).

Series [1] concerns SARS-CoV-2 EG.5.1 Spike pseudovirus. Nature of the series: organism not typed. Format: cell-based. The following applies: read-out: IC50 EG.5.1.
For series [2], the system named is SARS-CoV-2 KP.3.1.1 Spike pseudovirus. Nature of the series: organism not typed. Format: cell-based. To be noted: read-out: IC50 KP.3.1.1.
The test system of series [3] is pseudoviral particles carrying SARS-CoV-1 S. The series can be described thus: microbe, parasite or virus in culture. Format: cell-based.
Series [4] relates to SARS-CoV-2 XBB.1.5 Spike pseudovirus. The series can be described thus: organism not typed. Format: cell-based. The following applies: read-out: IC50 XBB.1.5.
The subject of series [5] is authentic SARS-CoV-2 XBB.1. Nature of the series: microbe, parasite or virus in culture. Format: cell-based. The following applies: Severe acute respiratory syndrome coronavirus 2, Vero C1008, read-out: IC50 authentic SARS-CoV-2 XBB.1.
Series [6] relates to SARS-CoV-2 HK.3 Spike pseudovirus. Nature of the series: organism not typed. It is filed as cell-based. To be noted: read-out: IC50 HK.3.
In series [7] the test system is SARS-CoV-2 XEC Spike pseudovirus. The series can be described thus: organism not typed. It is filed as cell-based. The following applies: read-out: IC50 XEC.
The test system of series [8] is SARS-CoV-2 JN.1 Spike pseudovirus. The series can be described thus: organism not typed. It is filed as cell-based. The following applies: read-out: IC50 JN.1.
The subject of series [9] is pseudoviral particles bearing the Spike glycoprotein from SARS-CoV-2. The series can be described thus: microbe, parasite or virus in culture. It is filed as cell-based. To be noted: pseudovirus, 293T-ACE2 cells, compounds up to 100 µM.
For series [10], the system named is SARS-CoV-2 B.1.1.7 Spike pseudovirus. The series can be described thus: organism not typed. It is filed as cell-based. The following applies: read-out: IC50 B.1.1.7.
Series [11] relates to SARS-CoV-2 BA.2.86 Spike pseudovirus. The series can be described thus: organism not typed. It is filed as cell-based. The following applies: read-out: IC50 BA.2.86.
For series [12], the system named is pseudoviral particles carrying VSV-G. The series can be described thus: microbe, parasite or virus in culture. It is filed as cell-based. The following applies: Vesicular stomatitis virus.
The subject of series [13] is SARS-CoV-2 XBB.1.16 Spike pseudovirus. The series can be described thus: organism not typed. Format: cell-based. To be noted: read-out: IC50 XBB.1.16.
Series [14] deals with SARS-CoV-2 BA.4/5 Spike pseudovirus. Nature of the series: organism not typed. It is filed as cell-based. To be noted: read-out: IC50 BA.4/5.
The test system of another series is 293T-ACE2 cells. Nature of the series: Cell viability test (CellTiter-Glo), 293T-ACE2. To be noted: concentrations up to 100 µM, 48 h. A general note: Cellular ATP, detected with luciferase, serves as a proxy for viable cell number.
The conditions of series [15]: in vivo.
In the next series the test system is Vero-E6 cells. Nature of the series: Cell viability test (CellTiter-Glo), Vero-E6. To be noted: concentrations up to 100 µM, 48 h.
A further series relates to SARS-CoV-2WA1-nLuc. Details: species or system K18-hACE2 mice. The following applies: mouse, in vivo.
Series [16] concerns SARS-CoV-2 (Wuhan strain) ectodomain SΔTM trimers. The following applies: 0.1 µM labeled Spike; 50 µM compound, 0.3 µM CV3-13, 0.6 µM ACE2; unbound Spike 40% ± 2%.
Series [17] is described as follows: Solubility in phosphate-buffered saline.
The mark [18] stands for this setting: Severe acute respiratory syndrome coronavirus, 293T/ACE2, read-out: IC50 SARS-CoV-1.
The mark [19] stands for this setting: Severe acute respiratory syndrome coronavirus 2, 293T/ACE2, read-out: IC50 SARS-CoV-2, Table 1.
[20] abbreviates: 293T/ACE2, read-out: IC50 VSV-G.

Values joined by “and” are separate entries in the source; they are usually repeats but may differ in a detail not shown here. Identical values can stand only once. Like-named read-outs stand apart in the source and are kept apart here.

With `O[C@@H](COc1cccc(OC[C@H](O)CN2CCCCC2)c1)CN1CCCCC1` [(R,R)-VE607, reference compound], the IC50 is 1.31 µM in series [1]; 4.68 µM in series [2]; 0.8 µM in series [3] (setting [18]); 0.89 µM in series [3] (read-out: IC50 SARS-CoV-1); 0.99 µM in series [4]; 58.6 µM in series [5]. The IC50 in series [6] was found to be 3.88 µM; in series [7], 3.9 µM; in series [8], 6.4 µM; in series [9] (setting [19]), 0.98 µM; in series [10], 1.17 µM; in series [11], 2.64 µM. Besides, the IC50 in series [12] (setting [20]) is greater than 100 µM; in series [12] (293T/ACE2, read-out: IC50 VSVG), greater than 100 µM; in [13], 2.03 µM; in [14], 5.78 µM.

With `CN(C)C[C@@H](O)COc1cc(Br)cc(OC[C@H](O)CN(C)C)c1` [Compound 27], the IC50 was 1.13 µM in [1]; 2.38 µM in [2]; 0.62 µM in series [3] (setting [18]); 0.625 µM and 0.93 µM in [3] (read-out: IC50 SARS-CoV-1); 1.04 µM in [4]; 24.1 µM in [5]. For the same compound, the IC50 stood at 0.73 µM in [6]; 1.79 µM in series [7]; 1.34 µM in [8]; 0.44 µM in series [9] (setting [19]); 0.437 µM in series [9] (read-out: IC50 SARS-CoV-2, Table 1); 1.12 µM in series [10]. The IC50 in series [11] was 3.3 µM; in [12] (setting [20]), 52.4 µM; in [12] (293T/ACE2, read-out: IC50 VSVG), greater than 100 µM; in series [13], 1.8 µM; in [14] it was 1.45 µM. Besides, the “Toxicity in 293T-ACE2 cells” value in the series on 293T-ACE2 cells is listed as “no toxicity”. In addition, the Concentration in plasma in series [15] (both, K18-hACE2, mouse) is recorded as ~ 1.5 µM. The Plasma retention result in series [15] (mouse) was “short plasma retention”. Besides, in series [15] (mouse, ip), the Brain penetration entry is given as “minimal penetration in the brain”. The “Toxicity in Vero-E6 cells” value with Vero-E6 cells was “no toxicity”. Also, the “Protection / survival outcome” value with SARS-CoV-2WA1-nLuc is “succumbed to virus-induced mortality”. Besides, the “Survival extended compared to the control group” value in the series with SARS-CoV-2WA1-nLuc came out at 1 days. In [16], the RBD-up conformation occupancy is 55% ± 2%.

For `CN1CCN(C[C@@H](O)COc2cc(Br)cc(OC[C@H](O)CN3CCN(C)CC3)c2)CC1` [Compound 30], the IC50 in series [1] turned out to be 1.5 µM; in [2] it was 2.16 µM; in series [3] (setting [18]), 1.98 µM; in [3] (read-out: IC50 SARS-CoV-1) it was 1.31 µM; in [4], 1.05 µM; in series [5] it was 38 µM. For the same compound, the IC50 was determined as 0.54 µM in series [6]; 3.09 µM in series [7]; 3.9 µM in [8]; 1.48 µM in series [9] (setting [19]); 1.26 µM in [10]; 3.52 µM in series [11]. Further, the IC50 is 80.8 µM in series [12] (setting [20]); greater than 100 µM in [12] (293T/ACE2, read-out: IC50 VSVG); 1.4 µM in [13]; 4.88 µM in series [14]. Moreover, the “Toxicity in 293T-ACE2 cells” value in the series with 293T-ACE2 cells is reported as “no toxicity”. Further, the “Toxicity in Vero-E6 cells” value in the series on Vero-E6 cells is listed as “no toxicity”.

With `CCN(C)C[C@@H](O)COc1cc(Br)cc(OC[C@H](O)CN(C)CC)c1` [Compound 33], the IC50 in [1] was 1.82 µM; in [2] it was 2.99 µM; in [3] (setting [18]) it was 1.44 µM; in series [3] (read-out: IC50 SARS-CoV-1), 1.3 µM; in series [4], 2.43 µM; in series [5] it was 17.1 µM. For the same compound, the IC50 in series [6] was determined as 2.35 µM; in series [7], 2.39 µM; in series [8], 2.02 µM; in series [9] (setting [19]) it was 1.71 µM; in series [10], 1.44 µM; in [11], 2.97 µM. Also, the IC50 in series [12] (setting [20]) was greater than 100 µM; in series [12] (293T/ACE2, read-out: IC50 VSVG) it was greater than 100 µM; in series [13], 2.13 µM; in [14] it was 2.81 µM. Also, the “Toxicity in 293T-ACE2 cells” value with 293T-ACE2 cells is “no toxicity”. Further, in the series on Vero-E6 cells, the “Toxicity in Vero-E6 cells” value is given as “no toxicity”. Besides, the RBD-up conformation occupancy in [16] is on record as 61% ± 2%.

With `O[C@H](CNCc1ccc(OC(F)(F)F)cc1)COc1cc(Br)cc(OC[C@H](O)CNCc2ccc(OC(F)(F)F)cc2)c1` [Compound 39], the “Solubility in phosphate-buffered saline (PBS)” value in [17] is “b Insoluble in phosphate-buffered saline (PBS)”.

On to ACE2, for which the RBD-up conformation occupancy in series [16] is reported as 67% ± 2%.
